{"source": "paper PMC11728001", "about": "“Design, Synthesis, and Biological Evaluation of Novel Urea-Containing Carnosic Acid Derivatives with Anticancer Activity” (International Journal of Molecular Sciences, 2024)", "key": {"[1]": {"test_system": "HCT116 colorectal cancer cell line", "experiment": "MTT cell viability assay, HCT116", "assay_type": "cell-based", "details": "Homo sapiens, HCT-116, 72 h incubation, mean ± SD", "procedure": "The antiproliferative activity of CA 1 and its derivatives was evaluated against a colorectal cancer (CRC) cell line (HCT116) using the MTT assay. The anticancer drug cisplatin was used as the reference drug.\n(§1) The effect of the compounds on cell viability was evaluated using the MTT assay. HCT116 (3000 cells/well), SW620 (8000 cells/well), SW480 (6000 cells/well), Caco-2 (4000 cells/well), A375 (1500 cells/well), MiaPaca-2 (2000 cells/well), and BJ (10,000 cells/well) cells were seeded in 96-well plates. After 24 h, the growth medium was replaced with a fresh medium containing the desired concentration of the compound or DMSO (control). After 72 h of incubation, the supernatant was removed and 100 µL of a mixture (1:1) of filtered MTT solution (1 mg/mL in PBS) with FBS-free medium was added to each well. After 1 h of incubation at 37 °C, the mixture was removed and 100 µL of DMSO was added to each well to dissolve the formed formazan crystals. Absorbance was immediately measured at 570 nm using a Benchmark Plus Microplate Reader (Bio-Rad Laboratories, Hercules, CA, USA). IC50 values were calculated using GraphPad Prism 9 software (GraphPad Software, San Diego, CA, USA) and expressed as the mean ± standard deviation (SD) of at least three independent experiments."}, "[2]": {"test_system": "SW480 cells", "experiment": "MTT cell viability assay, SW480", "assay_type": "cell-based", "details": "Homo sapiens, 72 h incubation, mean ± SD", "procedure": "as §1"}, "[3]": {"test_system": "SW620 cells", "experiment": "MTT cell viability assay, SW620", "assay_type": "cell-based", "details": "Homo sapiens, SW-620, 72 h incubation, mean ± SD", "procedure": "as §1"}, "[4]": {"test_system": "Caco-2 cells", "experiment": "MTT cell viability assay, Caco-2", "assay_type": "cell-based", "details": "Homo sapiens, 72 h incubation, mean ± SD", "procedure": "as §1"}, "[5]": {"test_system": "A375 melanoma cells", "experiment": "MTT cell viability assay, A375", "assay_type": "cell-based", "details": "Homo sapiens, A-375, 72 h incubation, mean ± SD", "procedure": "as §1"}, "[6]": {"test_system": "MiaPaca-2 pancreatic cancer cells", "experiment": "MTT cell viability assay, MiaPaca-2", "assay_type": "cell-based", "details": "Homo sapiens, MIA PaCa-2, 72 h incubation, mean ± SD", "procedure": "as §1"}, "[7]": {"test_system": "HCT116 colorectal cancer cell line", "design": "method as in PMID 29922789", "details": "MTT, 72 h; obtained previously by the research group, same methodology; cited from earlier work"}, "[8]": {"test_system": "SW620 cells", "design": "method as in PMID 31909511", "details": "obtained previously by the research group, same methodology; cited from earlier work"}, "[9]": {"test_system": "A375 melanoma cells", "design": "method as in PMID 23229057", "details": "from literature, same methodology; cited from earlier work"}, "[10]": {"test_system": "MiaPaca-2 pancreatic cancer cells", "design": "method as in PMID 18007390", "details": "from literature, same methodology; cited from earlier work"}, "[11]": {"test_system": "BJ non-tumoral fibroblast cell line", "design": "method as in PMID 41058673", "details": "obtained previously by the research group, same methodology; cited from earlier work"}}, "note": "Where two headings read alike, the source gives them in different places."}
{"smiles": "CC(C)c1cc2c(c(O)c1O)[C@@]1(C(=O)O)CCCC(C)(C)[C@@H]1CC2", "note": "[CA 1, Carnosic acid]", "values": [{"measurement": "IC50", "setting": "[1]", "result": "42 ± 4", "unit": "µM"}, {"measurement": "IC50", "setting": "[2]", "result": "21.8 ± 0.7", "unit": "µM"}, {"measurement": "IC50", "setting": "[3]", "result": "18 ± 2", "unit": "µM"}, {"measurement": "IC50", "setting": "[4]", "result": "34 ± 2", "unit": "µM"}, {"measurement": "IC50", "setting": "[5]", "result": "27.6 ± 0.5", "unit": "µM"}, {"measurement": "IC50", "setting": "[6]", "result": "21 ± 2", "unit": "µM"}]}
{"smiles": "N.N.[Cl][Pt][Cl]", "note": "[Cisplatin, cisplatin]", "values": [{"measurement": "IC50", "setting": "[7]", "result": "21 ± 1", "unit": "µM"}, {"measurement": "IC50", "setting": "[8]", "result": "1.4 ± 0.5", "unit": "µM"}, {"measurement": "IC50", "setting": "[9]", "result": "3 ± 1", "unit": "µM"}, {"measurement": "IC50", "setting": "[10]", "result": "5 ± 1", "unit": "µM"}, {"measurement": "IC50", "setting": "[11]", "result": "10 ± 2", "unit": "µM"}]}
{"smiles": "CC(=O)Oc1c(C(C)C)cc2c(c1OC(C)=O)[C@@]1(C(=O)O)CCCC(C)(C)[C@@H]1CC2", "note": "[Compound 2, (4aR,10aS)-5,6-Diacetoxy-7-isopropyl-1,1-dimethyl-1,3,4,9,10,10a-hexahydrophenanthrene-4a(2H)-carboxylic acid]", "values": [{"measurement": "IC50", "setting": "[1]", "result": "44 ± 4", "unit": "µM"}]}
{"smiles": "CC(=O)Oc1c(C(C)C)cc2c(c1OC(C)=O)[C@@]1(N=C=O)CCCC(C)(C)[C@@H]1CC2", "note": "[Compound 5, (4bR, 8aS)-4b-Isocyanato-2-isopropyl-8,8-dimethyl-4b,5,6,7,8,8a,9,10-octahydrophenanthrene-3,4-diyl diacetate]", "values": [{"measurement": "IC50", "setting": "[1]", "result": "28 ± 3", "unit": "µM"}]}
{"smiles": "CNC(=O)N[C@]12CCCC(C)(C)[C@@H]1CCc1cc(C(C)C)c(OC(C)=O)c(OC(C)=O)c12", "note": "[Compound 6, (4bR,8aS)-2-isopropyl-8,8-dimethyl-4b-(3-methylureido)-4b,5,6,7,8,8a,9,10-octahydrophenanthrene-3,4-diyl diacetate]", "values": [{"measurement": "IC50", "setting": "[1]", "result": "55 ± 5", "unit": "µM"}]}
{"smiles": "CCNC(=O)N[C@]12CCCC(C)(C)[C@@H]1CCc1cc(C(C)C)c(OC(C)=O)c(OC(C)=O)c12", "note": "[Compound 7, (4bR,8aS)-4b-(3-Ethylureido)-2-isopropyl-8,8-dimethyl-4b,5,6,7,8,8a,9,10-octahydrophenanthrene-3,4-diyl diacetate]", "values": [{"measurement": "IC50", "setting": "[1]", "result": "44 ± 4", "unit": "µM"}]}
{"smiles": "CCCNC(=O)N[C@]12CCCC(C)(C)[C@@H]1CCc1cc(C(C)C)c(OC(C)=O)c(OC(C)=O)c12", "note": "[Compound 8, (4bR,8aS)-2-isopropyl-8,8-dimethyl-4b-(3-propylureido)-4b,5,6,7,8,8a,9,10-octahydrophenanthrene-3,4-diyl diacetate]", "values": [{"measurement": "IC50", "setting": "[1]", "result": "31 ± 1", "unit": "µM"}]}
{"smiles": "CCCCN(C)C(=O)N[C@]12CCCC(C)(C)[C@@H]1CCc1cc(C(C)C)c(OC(C)=O)c(OC(C)=O)c12", "note": "[Compound 9, (4bR,8aS)-4b-(3-butyl-3-methylureido)-2-isopropyl-8,8-dimethyl-4b,5,6,7,8,8a,9,10-octahydrophenanthrene-3,4-diyl diacetate]", "values": [{"measurement": "IC50", "setting": "[1]", "result": "22 ± 1", "unit": "µM"}]}
{"smiles": "CC(=O)Oc1c(C(C)C)cc2c(c1OC(C)=O)[C@@]1(NC(=O)NCC(C)C)CCCC(C)(C)[C@@H]1CC2", "note": "[Compound 10, (4bR,8aS)-4b-(3-isobutylureido)-2-isopropyl-8,8-dimethyl-4b,5,6,7,8,8a,9,10-octahydrophenanthrene-3,4-diyl diacetate]", "values": [{"measurement": "IC50", "setting": "[1]", "result": "22 ± 2", "unit": "µM"}]}
{"smiles": "CC(=O)Oc1c(C(C)C)cc2c(c1OC(C)=O)[C@@]1(NC(=O)NCC(C)(C)CN(C)C)CCCC(C)(C)[C@@H]1CC2", "note": "[Compound 11, (4bR,8aS)-4b-(3-(3-(dimethylamino)-2,2-dimethylpropyl)ureido)-2-isopropyl-8,8-dimethyl-4b,5,6,7,8,8a,9,10-octahydrophenanthrene-3,4-diyl diacetate]", "values": [{"measurement": "IC50", "setting": "[1]", "result": "30 ± 1", "unit": "µM"}]}
{"smiles": "CONC(=O)N[C@]12CCCC(C)(C)[C@@H]1CCc1cc(C(C)C)c(OC(C)=O)c(OC(C)=O)c12", "note": "[Compound 12, (4bR,8aS)-2-isopropyl-4b-(3-methoxyureido)-8,8-dimethyl-4b,5,6,7,8,8a,9,10-octahydrophenanthrene-3,4-diyl diacetate]", "values": [{"measurement": "IC50", "setting": "[1]", "result": "41 ± 3", "unit": "µM"}]}
{"smiles": "CC(=O)Oc1c(C(C)C)cc2c(c1OC(C)=O)[C@@]1(NC(=O)NCCc3ccccc3)CCCC(C)(C)[C@@H]1CC2", "note": "[Compound 13, (4bR,8aS)-2-isopropyl-8,8-dimethyl-4b-(3-phenethylureido)-4b,5,6,7,8,8a,9,10-octahydrophenanthrene-3,4-diyl diacetate]", "values": [{"measurement": "IC50", "setting": "[1]", "result": "14 ± 2", "unit": "µM"}, {"measurement": "IC50", "setting": "[2]", "result": "8.6 ± 0.3", "unit": "µM"}, {"measurement": "IC50", "setting": "[3]", "result": "9 ± 1", "unit": "µM"}, {"measurement": "IC50", "setting": "[4]", "result": "10.9 ± 0.6", "unit": "µM"}]}
{"smiles": "CC(=O)Oc1c(C(C)C)cc2c(c1OC(C)=O)[C@@]1(NC(=O)NCc3ccncc3)CCCC(C)(C)[C@@H]1CC2", "note": "[Compound 15, (4bR,8aS)-2-isopropyl-8,8-dimethyl-4b-(3-(pyridin-4-ylmethyl)ureido)-4b,5,6,7,8,8a,9,10-octahydrophenanthrene-3,4-diyl diacetate]", "values": [{"measurement": "IC50", "setting": "[1]", "result": "33 ± 2", "unit": "µM"}]}
{"smiles": "CC(=O)Oc1c(C(C)C)cc2c(c1OC(C)=O)[C@@]1(NC(=O)NCCCN(C)c3ccccc3)CCCC(C)(C)[C@@H]1CC2", "note": "[Compound 16, (4bR,8aS)-2-isopropyl-8,8-dimethyl-4b-(3-(3-(methyl(phenyl)amino)propyl)ureido)-4b,5,6,7,8,8a,9,10-octahydrophenanthrene-3,4-diyl diacetate]", "values": [{"measurement": "IC50", "setting": "[1]", "result": "12 ± 0.5", "unit": "µM"}, {"measurement": "IC50", "setting": "[2]", "result": "7.6 ± 0.6", "unit": "µM"}, {"measurement": "IC50", "setting": "[3]", "result": "6.4 ± 0.4", "unit": "µM"}, {"measurement": "IC50", "setting": "[4]", "result": "9.6 ± 0.6", "unit": "µM"}, {"measurement": "IC50", "setting": "[5]", "result": "7.6 ± 0.6", "unit": "µM"}, {"measurement": "IC50", "setting": "[6]", "result": "9.3 ± 0.4", "unit": "µM"}]}
{"smiles": "CC(=O)Oc1c(C(C)C)cc2c(c1OC(C)=O)[C@@]1(NC(=O)NCc3ccoc3)CCCC(C)(C)[C@@H]1CC2", "note": "[Compound 17, (4bR,8aS)-4b-(3-(furan-3-ylmethyl)ureido)-2-isopropyl-8,8-dimethyl-4b,5,6,7,8,8a,9,10-octahydrophenanthrene-3,4-diyl diacetate]", "values": [{"measurement": "IC50", "setting": "[1]", "result": "21 ± 2", "unit": "µM"}]}
{"smiles": "CC(=O)Oc1c(C(C)C)cc2c(c1OC(C)=O)[C@@]1(NC(=O)NCC3CCOCC3)CCCC(C)(C)[C@@H]1CC2", "note": "[Compound 18, (4bR,8aS)-2-isopropyl-8,8-dimethyl-4b-(3-((tetrahydro-2H-pyran-4-yl)methyl)ureido)-4b,5,6,7,8,8a,9,10-octahydrophenanthrene-3,4-diyl diacetate]", "values": [{"measurement": "IC50", "setting": "[1]", "result": "51 ± 5", "unit": "µM"}]}
{"smiles": "CC(=O)Oc1c(C(C)C)cc2c(c1OC(C)=O)[C@@]1(NC(=O)NC3COC3)CCCC(C)(C)[C@@H]1CC2", "note": "[Compound 19, (4bR,8aS)-2-isopropyl-8,8-dimethyl-4b-(3-(oxetan-3-yl)ureido)-4b,5,6,7,8,8a,9,10-octahydrophenanthrene-3,4-diyl diacetate]", "values": [{"measurement": "IC50", "setting": "[1]", "result": "> 60", "unit": "µM"}]}
{"smiles": "CC(=O)Oc1c(C(C)C)cc2c(c1OC(C)=O)[C@@]1(NC(=O)NCC3(C)COC3)CCCC(C)(C)[C@@H]1CC2", "note": "[Compound 20, (4bR,8aS)-2-isopropyl-8,8-dimethyl-4b-(3-((3-methyloxetan-3-yl)methyl)ureido)-4b,5,6,7,8,8a,9,10-octahydrophenanthrene-3,4-diyl diacetate]", "values": [{"measurement": "IC50", "setting": "[1]", "result": "46 ± 2", "unit": "µM"}]}
